pEC50, pIC50, pKd: −log10 of the molar value. The source made the active and inactive calls. The calls are words filed in the database; no cut-off is given here. Numbered stars: 1 amine (or outer) side, 2 acyl side, 3 side chain; on linkers, the order of the positions; unused ones are H or OH. Bridge positions count the residues as written; N and C are the ends. Square brackets hold non-standard residues; d marks the D form. Peptide text beside a SMILES is read from it. * marks the point of attachment. X2 = CCCN(C(=O)[C@@H](NC(=O)[C@H]1CCCCN1C)[C@@H](C)CC)[C@H](C[C@@H](OC(C)=O)c1nc(C(=O)N[C@@H](Cc2ccc(NC(=O)[C@H](CCCNC(N)=O)NC(=O)[C@@H](NC(=O)CCCCCN3C(=O)CC(*)C3=O)C(C)C)cc2)C[C@H](C)C(=O)O)cs1)C(C)C; Bip = N[C@@H](Cc1ccc(-c2ccccc2)cc1)C(=O)O; X1 = CN([C@@H](CC(N)O)C(=O)[*:2])[*:1]; NMeF = CN[C@@H](Cc1ccccc1)C(=O)O; Hpg = N[C@H](C(=O)O)c1ccc(O)cc1; Sar = CNCC(=O)O
Tests used:
[1] = biological target: T1, Inactive tyrosine-protein kinase transmembrane receptor ROR1 (Homo sapiens, UniProt Q01973); experiment: Induction of ROR1 internalization in human MIA PaCa-2; type: cell-based
T1 sequence (Q01973 whole entry): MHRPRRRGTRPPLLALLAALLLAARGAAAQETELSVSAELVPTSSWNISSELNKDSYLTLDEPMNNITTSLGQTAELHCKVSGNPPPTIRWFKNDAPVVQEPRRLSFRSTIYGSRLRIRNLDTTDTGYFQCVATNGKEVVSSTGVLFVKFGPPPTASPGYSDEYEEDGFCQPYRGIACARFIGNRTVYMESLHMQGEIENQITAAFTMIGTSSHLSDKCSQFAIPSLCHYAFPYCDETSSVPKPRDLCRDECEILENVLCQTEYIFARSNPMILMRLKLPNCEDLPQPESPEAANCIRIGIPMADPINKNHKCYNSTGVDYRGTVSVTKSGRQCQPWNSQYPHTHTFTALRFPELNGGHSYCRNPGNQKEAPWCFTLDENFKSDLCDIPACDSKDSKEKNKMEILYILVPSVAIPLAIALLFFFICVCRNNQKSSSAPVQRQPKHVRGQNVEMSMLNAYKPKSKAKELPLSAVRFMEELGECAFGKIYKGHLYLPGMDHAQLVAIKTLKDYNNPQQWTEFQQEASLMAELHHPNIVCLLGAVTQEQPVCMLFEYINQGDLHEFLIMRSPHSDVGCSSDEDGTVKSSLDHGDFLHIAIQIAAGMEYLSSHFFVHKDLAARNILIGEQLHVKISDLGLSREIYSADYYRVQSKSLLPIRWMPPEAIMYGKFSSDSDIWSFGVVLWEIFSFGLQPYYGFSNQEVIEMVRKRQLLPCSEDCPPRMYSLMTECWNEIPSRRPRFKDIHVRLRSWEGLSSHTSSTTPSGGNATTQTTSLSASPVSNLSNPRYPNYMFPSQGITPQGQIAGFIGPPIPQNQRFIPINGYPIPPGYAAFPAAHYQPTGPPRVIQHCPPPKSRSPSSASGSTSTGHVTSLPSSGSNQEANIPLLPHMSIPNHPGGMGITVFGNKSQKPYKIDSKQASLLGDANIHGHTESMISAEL

[2] = biological target: Tyrosine-protein kinase transmembrane receptor ROR2 (Homo sapiens, UniProt Q01974); experiment: Binding affinity to full length human His-tagged ROR2 (943 residues ) assessed as dissociation constant by SPR analysis
Tyrosine-protein kinase transmembrane receptor ROR2, sequence (Q01974 whole entry): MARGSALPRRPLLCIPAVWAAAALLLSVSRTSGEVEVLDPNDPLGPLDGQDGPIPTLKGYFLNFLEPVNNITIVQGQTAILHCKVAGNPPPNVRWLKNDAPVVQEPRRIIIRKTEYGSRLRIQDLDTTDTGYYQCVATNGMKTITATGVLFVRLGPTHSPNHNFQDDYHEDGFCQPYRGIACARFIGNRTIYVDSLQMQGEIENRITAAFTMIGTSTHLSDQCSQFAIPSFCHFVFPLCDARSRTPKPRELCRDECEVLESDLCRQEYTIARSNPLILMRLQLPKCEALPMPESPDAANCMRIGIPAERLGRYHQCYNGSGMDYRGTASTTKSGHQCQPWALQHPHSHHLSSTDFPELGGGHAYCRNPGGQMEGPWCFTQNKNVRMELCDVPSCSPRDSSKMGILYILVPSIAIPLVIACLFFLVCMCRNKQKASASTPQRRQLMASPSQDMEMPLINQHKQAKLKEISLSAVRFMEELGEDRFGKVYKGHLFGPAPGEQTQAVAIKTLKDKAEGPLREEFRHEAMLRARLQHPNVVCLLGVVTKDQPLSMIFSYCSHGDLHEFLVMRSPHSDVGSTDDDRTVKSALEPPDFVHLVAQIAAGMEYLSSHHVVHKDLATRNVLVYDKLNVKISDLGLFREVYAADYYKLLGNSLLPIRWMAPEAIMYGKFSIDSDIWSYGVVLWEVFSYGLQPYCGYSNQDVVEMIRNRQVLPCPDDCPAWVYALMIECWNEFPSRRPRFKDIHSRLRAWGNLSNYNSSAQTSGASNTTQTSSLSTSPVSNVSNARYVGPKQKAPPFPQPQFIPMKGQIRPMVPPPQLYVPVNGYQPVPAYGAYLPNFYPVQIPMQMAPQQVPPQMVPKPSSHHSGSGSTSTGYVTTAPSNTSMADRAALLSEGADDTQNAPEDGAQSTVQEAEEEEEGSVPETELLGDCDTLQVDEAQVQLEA

[3] = biological target: T1, Inactive tyrosine-protein kinase transmembrane receptor ROR1; experiment: Binding affinity to full length human His-tagged ROR1 (937 residues ) assessed as dissociation constant by SPR analysis
[4] = biological target: T1, Inactive tyrosine-protein kinase transmembrane receptor ROR1; experiment: Induction of ROR1 internalization in human 786-0; type: cell-based
[5] = biological target: T1, Inactive tyrosine-protein kinase transmembrane receptor ROR1; experiment: Binding affinity to human ROR1 harbouring IGt2 domain at 100 nM relative to control
[6] = biological target: T1, Inactive tyrosine-protein kinase transmembrane receptor ROR1; experiment: Induction of ROR1 internalization in human 786-0 cells at 4 to 37 degreeC; type: cell-based
[7] = biological target: T1, Inactive tyrosine-protein kinase transmembrane receptor ROR1; experiment: Binding affinity to ROR1 (unknown origin)
[8] = biological target: T1, Inactive tyrosine-protein kinase transmembrane receptor ROR1; experiment: Binding affinity to human ROR1 harbouring CRD domain at 100 nM relative to control
[9] = biological target: T1, Inactive tyrosine-protein kinase transmembrane receptor ROR1; experiment: Binding affinity to human ROR1 expressed in HEK293 cells by cell based assay
[10] = tested on: MIA PaCa-2; experiment: Induction of apoptosis in human MIA PaCa-2 cells assessed as activation of caspase3/7; type: functional, cell-based
[11] = biological target: T1, Inactive tyrosine-protein kinase transmembrane receptor ROR1; experiment: Induction of ROR1 internalization in human MDA-MB-231; type: cell-based
[12] = […] stability in mouse serum assessed as half life; type: ADME, cell-free
[13] = Proteolytic stability in mouse serum assessed as half life; type: ADME, cell-free
[14] = tested on: JeKo-1; experiment: Antiproliferative activity in human JeKo-1 cells; type: functional, cell-based
[15] = tested on: HEK293; experiment: Antiproliferative activity in HEK293 cells harbouring ROR1; type: toxicity, cell-based; details: Homo sapiens
[16] = tested on: ASPC1; experiment: Antiproliferative activity in human ASPC1 cells; type: functional, cell-based
[17] = tested on: 786-0; experiment: Antiproliferative activity in human 786-0 cells; type: functional, cell-based
[18] = Stability in mouse serum assessed as half life; type: ADME, cell-free
[19] = Stability in human serum assessed as half life; type: ADME, cell-free

CC(C)C[C@@H]1NC(=O)[C@H](Cc2ccc(O)cc2)NC(=O)[C@H](Cc2ccccc2)NC(=O)CSC[C@@H](C(=O)NCC(=O)NCC(=O)NCC(=O)N[C@H](CCCCNC(=O)c2ccc3c(c2)C(=O)OC32c3ccc(O)cc3Oc3cc(O)ccc32)C(N)=O)NC(=O)[C@H](CC(C)C)NC(=O)[C@H](Cc2ccccc2)N(C)C(=O)[C@H](Cc2ccc(O)cc2)NC(=O)[C@H](Cc2c[nH]c3ccccc23)NC(=O)CNC(=O)[C@H](CO)NC(=O)[C@H](Cc2ccc(O)cc2)NC(=O)[C@H](C(C)C)NC1=O
Activity [1]: inactive
pKd [2]: < 7.00
pKd [3]: 7.47
Activity [4]: inactive

CC(C)C[C@@H]1NC(=O)[C@H](CC(N)O)N(C)C(=O)[C@H](Cc2ccccc2)NC(=O)CNC(=O)[C@H](Cc2ccc(O)cc2)NC(=O)[C@H](Cc2ccccc2)NC(=O)CSC[C@@H](C(N)=O)NC(=O)[C@H](Cc2c[nH]c3ccccc23)NC(=O)[C@H](Cc2ccc(O)cc2)NC1=O (some centres not stated) ({CH2CO}-FYGF[X1]LYWC-NH2; thioether N-9)
Activity [5]: 75%
Activity [6]: Active
pIC50 [7]: 7.18
Activity [8]: 125%
pKd [2]: < 7.96
pKd [3]: 7.66

CC(C)C[C@@H]1NC(=O)[C@H](Cc2ccc(O)cc2)NC(=O)[C@H](Cc2ccccc2)NC(=O)CSC[C@@H](C(=O)NCC(N)=O)NC(=O)[C@H](CC(C)C)NC(=O)[C@H](Cc2ccccc2)N(C)C(=O)[C@H](Cc2ccc(O)cc2)NC(=O)[C@H](Cc2c[nH]c3ccccc23)NC(=O)CNC(=O)[C@H](CO)NC(=O)[C@H](Cc2ccc(O)cc2)NC(=O)[C@H](C)NC1=O ({CH2CO}-FYLAYSGWY[NMeF]LCG-NH2; thioether N-12)
pIC50 [9]: 7.91

CC(C)C[C@@H]1NC(=O)[C@H](Cc2ccc(O)cc2)NC(=O)[C@H](Cc2ccccc2)NC(=O)CSC[C@@H](C(=O)NCC(N)=O)NC(=O)[C@H](CC(C)C)NC(=O)[C@H](Cc2ccccc2)N(C)C(=O)[C@H](Cc2ccc(O)cc2)NC(=O)[C@H](Cc2c[nH]c3ccccc23)NC(=O)CNC(=O)[C@H](CC(=O)O)NC(=O)[C@H](Cc2ccc(O)cc2)NC(=O)[C@H](C(C)C)NC1=O ({CH2CO}-FYLVYDGWY[NMeF]LCG-NH2; thioether N-12)
pIC50 [9]: 7.84

CC(C)C[C@@H]1NC(=O)[C@H](Cc2ccc(O)cc2)NC(=O)[C@H](Cc2ccccc2)NC(=O)CSC[C@@H](C(=O)NCC(N)=O)NC(=O)[C@H](C(C)C)NC(=O)[C@H](Cc2ccccc2)N(C)C(=O)[C@H](c2ccc(O)cc2)NC(=O)[C@H](Cc2c[nH]c3ccccc23)NC(=O)CNC(=O)[C@H](CC(N)=O)NC(=O)[C@H](Cc2ccc(O)cc2)NC(=O)[C@H](C(C)C)NC1=O ({CH2CO}-FYLVYNGW[Hpg][NMeF]VCG-NH2; thioether N-12)
pIC50 [9]: 8.28

CC(C)C[C@@H]1NC(=O)[C@H](Cc2ccc(O)cc2)NC(=O)[C@H](Cc2ccccc2)NC(=O)CSC[C@@H](C(=O)NCC(N)=O)NC(=O)[C@H](CC(C)C)NC(=O)[C@H](Cc2ccccc2)N(C)C(=O)[C@H](Cc2ccc(O)cc2)NC(=O)[C@H](Cc2c[nH]c3ccccc23)NC(=O)CNC(=O)[C@H](CCC(N)=O)NC(=O)[C@H](Cc2ccc(O)cc2)NC(=O)[C@H](C(C)C)NC1=O ({CH2CO}-FYLVYQGWY[NMeF]LCG-NH2; thioether N-12)
pIC50 [9]: 8.14

CC(C)C[C@@H]1NC(=O)[C@H](Cc2ccc(O)cc2)NC(=O)[C@H](Cc2ccccc2)NC(=O)CSC[C@@H](C(N)=O)NC(=O)[C@H](CC(C)C)NC(=O)[C@H](Cc2ccccc2)N(C)C(=O)[C@H](Cc2ccc(O)cc2)NC(=O)[C@H](Cc2c[nH]c3ccccc23)NC(=O)CNC(=O)[C@H](CO)NC(=O)[C@H](Cc2ccc(O)cc2)NC(=O)[C@H](C(C)C)NC1=O ({CH2CO}-FYLVYSGWY[NMeF]LC-NH2; thioether N-12)
pIC50 [9]: 8.14

CC(C)C[C@@H]1NC(=O)[C@H](Cc2ccc(O)cc2)NC(=O)[C@H](Cc2ccccc2)NC(=O)CSC[C@@H](C(=O)NCC(N)=O)NC(=O)[C@H](CC(C)C)NC(=O)[C@H](Cc2ccccc2)N(C)C(=O)[C@H](Cc2ccc(O)cc2)NC(=O)[C@H](Cc2c[nH]c3ccccc23)NC(=O)CNC(=O)[C@H](CO)NC(=O)[C@H](Cc2ccc(O)cc2)NC(=O)[C@H](C(C)C)NC1=O ({CH2CO}-FYLVYSGWY[NMeF]LCG-NH2; thioether N-12)
Activity [10]: inactive
Activity [5]: 68%
Activity [6]: Active
Activity [11]: Active
half-life [12]: > 24 h
Activity [8]: 104%
pKd [2]: 7.37
half-life [13]: > 24 h
Activity [4]: Active

CC(C)C[C@@H]1NC(=O)[C@H](Cc2ccc(O)cc2)NC(=O)[C@H](Cc2ccccc2)NC(=O)CSC[C@@H](C(=O)NCC(=O)NCC(=O)NCC(=O)NCC(=O)O)NC(=O)[C@H](CC(C)C)NC(=O)[C@H](Cc2ccccc2)N(C)C(=O)[C@H](Cc2ccc(O)cc2)NC(=O)[C@H](Cc2c[nH]c3ccccc23)NC(=O)CNC(=O)[C@H](CO)NC(=O)[C@H](Cc2ccc(O)cc2)NC(=O)[C@H](C(C)C)NC1=O ({CH2CO}-FYLVYSGWY[NMeF]LCGGGG-OH; thioether N-12)
pEC50 [14]: 7.05
pEC50 [15]: 7.26
pEC50 [16]: 7.12
pEC50 [17]: 7.20

CCCN(C(=O)[C@@H](NC(=O)[C@H]1CCCCN1C)[C@@H](C)CC)[C@H](C[C@@H](OC(C)=O)c1nc(C(=O)N[C@@H](Cc2ccc(NC(=O)[C@H](CCCNC(N)=O)NC(=O)[C@@H](NC(=O)CCCCCN3C(=O)CC(SC[C@H](NC(=O)CNC(=O)CNC(=O)CNC(=O)CNC(=O)[C@@H]4CSCC(=O)N[C@@H](Cc5ccccc5)C(=O)N[C@@H](Cc5ccc(O)cc5)C(=O)N[C@@H](CC(C)C)C(=O)N[C@@H](C(C)C)C(=O)N[C@@H](Cc5ccc(O)cc5)C(=O)N[C@@H](CO)C(=O)NCC(=O)N[C@@H](Cc5c[nH]c6ccccc56)C(=O)N[C@@H](Cc5ccc(O)cc5)C(=O)N(C)[C@@H](Cc5ccccc5)C(=O)N[C@@H](CC(C)C)C(=O)N4)C(N)=O)C3=O)C(C)C)cc2)C[C@H](C)C(=O)O)cs1)C(C)C (some centres not stated) ({CH2CO}-FYLVYSGWY[NMeF]LCGGGGC(X2)-NH2; thioether N-12)
pEC50 [14]: 6.48
pEC50 [15]: 7.56
pEC50 [16]: 6.84
pEC50 [17]: 6.81

CC(C)C[C@@H]1NC(=O)[C@H](Cc2ccc(O)cc2)NC(=O)[C@H](Cc2ccccc2)NC(=O)CSC[C@@H](C(=O)NCC(N)=O)NC(=O)[C@H](CC(C)C)NC(=O)[C@H](Cc2ccccc2)N(C)C(=O)[C@H](Cc2ccc(O)cc2)NC(=O)[C@H](Cc2c[nH]c3ccccc23)NC(=O)CNC(=O)[C@H](Cc2ccc(O)cc2)NC(=O)[C@H](Cc2ccc(O)cc2)NC(=O)[C@H](C(C)C)NC1=O ({CH2CO}-FYLVYYGWY[NMeF]LCG-NH2; thioether N-12)
pIC50 [9]: 8.07

CC(C)C[C@@H]1NC(=O)[C@H](Cc2ccccc2)N(C)C(=O)[C@H](Cc2ccc(O)cc2)NC(=O)[C@H](Cc2c[nH]c3ccccc23)NC(=O)CNC(=O)[C@H](CO)NC(=O)[C@H](Cc2ccc(O)cc2)NC(=O)[C@H](C(C)C)NC(=O)[C@@H]2CCCN2C(=O)[C@H](Cc2ccc(O)cc2)NC(=O)[C@H](Cc2ccccc2)NC(=O)CSC[C@@H](C(=O)NCC(N)=O)NC1=O ({CH2CO}-FYPVYSGWY[NMeF]LCG-NH2; thioether N-12)
pIC50 [9]: 8.28

CC(C)C[C@@H]1NC(=O)[C@H](Cc2ccccc2)N(C)C(=O)[C@H](Cc2ccc(O)cc2)NC(=O)[C@H](Cc2c[nH]c3ccccc23)NC(=O)CNC(=O)[C@H](CO)NC(=O)[C@H](Cc2ccc(O)cc2)NC(=O)[C@H](C(C)C)NC(=O)[C@H](CCCNC(=N)N)NC(=O)[C@H](Cc2ccc(O)cc2)NC(=O)[C@H](Cc2ccccc2)NC(=O)CSC[C@@H](C(=O)NCC(N)=O)NC1=O ({CH2CO}-FYRVYSGWY[NMeF]LCG-NH2; thioether N-12)
pIC50 [9]: 8.20

CN1CC(=O)N[C@@H](CO)C(=O)N[C@@H](Cc2ccc(-c3ccccc3)cc2)C(=O)NCC(=O)N[C@@H](CCCNC(=N)N)C(=O)N[C@@H](CCCNC(=N)N)C(=O)N[C@@H](CCCNC(=N)N)C(=O)NCC(=O)N[C@H](C(=O)NCC(N)=O)CSCC(=O)N[C@@H](Cc2ccccc2)C(=O)N[C@@H](Cc2ccc(O)cc2)C1=O ({CH2CO}-FY[Sar]S[Bip]GRRRGCG-NH2; thioether N-11)
Activity [5]: 125%
Activity [6]: inactive
half-life [18]: 0.517 h
half-life [12]: 24 h
Activity [8]: 114%
pKd [2]: < 7.00
pKd [3]: 8.52
half-life [19]: 1.1 h

CC(C)C[C@@H]1NC(=O)[C@H](Cc2ccc(O)cc2)NC(=O)[C@H](Cc2c[nH]c3ccccc23)NC(=O)CSC[C@@H](C(=O)NCC(N)=O)NC(=O)[C@H](CC(C)C)NC(=O)[C@H](Cc2ccccc2)N(C)C(=O)[C@H](Cc2ccc(O)cc2)NC(=O)[C@H](Cc2c[nH]c3ccccc23)NC(=O)CNC(=O)[C@H](CO)NC(=O)[C@H](Cc2ccc(O)cc2)NC(=O)[C@H](C(C)C)NC1=O ({CH2CO}-WYLVYSGWY[NMeF]LCG-NH2; thioether N-12)
Activity [11]: Active
pIC50 [9]: 8.66
Activity [4]: Active

CC[C@H](C)[C@H](NC(=O)[C@H]1CCCCN1C)C(=O)N(COC(=O)CC(C)C)[C@H](C[C@@H](OC(C)=O)c1nc(C(=O)N[C@@H](Cc2ccc(C)cc2)C[C@H](C)C(=O)O)cs1)C(C)C [TUBULYSIN]
pEC50 [17]: 9.24

Reference: ChEMBL document CHEMBL5356977, “Exploration of macrocyclic peptide binders to the extracellular CRD domain of human receptor tyrosine kinase-like orphan receptor 1 (ROR1)” (Bioorg Med Chem Lett, 2024)
